{"source": "paper PMC6009907", "about": "“Synthesis, characterization and in vitro inhibition of metal complexes of pyrazole based sulfonamide on human erythrocyte carbonic anhydrase isozymes I and II” (Journal of Enzyme Inhibition and Medicinal Chemistry, 2017)", "assay_type_in_all_cases": "biochemical", "key": {"hCA-II [1]": {"biological_target": "T1, hCA-II (Homo sapiens, UniProt P00918)", "T1 construct": "Purification of isoenzymes hCA-I and hCA-II from human erythrocytes; from tissue; host or cells: human erythrocytes (blood)", "assay": "Determination of Ki values (esterase activity, Lineweaver–Burk), hCA-II", "settings": "five substrate concentrations, Lineweaver–Burk plot", "method": "(§1) In order to purify hCA-I and hCA-II isoenzymes, first, human blood was centrifuged at 1500 rpm for 20 min, and after the removal of the plasma, the erythrocytes were washed with an isotonic solution (0.9% NaCl). After that, the erythrocytes were lysed with 1.5 volume of ice-cold water. The lysate was centrifuged at 20 000 rpm for 30 min to remove cell membranes and non-lysed cells. […] After extensive washing with 25 mM tris–HCl/22 mM Na2SO4 (pH 8.7), the hCA-I and hCA-II isoenzymes were eluted with 1.0 M NaCl/25 mM Na2HPO4 (pH 6.3) and 0.1 M CH3COONa/0.5 M NaClO4 (pH 5.6).[45]^,[46] The amount of purified protein was estimated by the Bradford method[47] and SDS-PAGE was carried out to determine whether the elute containing the enzyme[48] (Supplemental Figure 1).\n(§2) The method for determination of Ki values is described elsewhere.[52–56] […] Regression analysis graphs were drawn by plotting inhibitor concentrations versus enzyme activity by using Microsoft Excel Program."}, "hCA-I [2]": {"biological_target": "T2, hCA-I (Homo sapiens, UniProt P00915)", "T2 construct": "Purification of isoenzymes hCA-I and hCA-II from human erythrocytes; from tissue; host or cells: human erythrocytes (blood)", "T2 sequence (P00915 whole entry)": "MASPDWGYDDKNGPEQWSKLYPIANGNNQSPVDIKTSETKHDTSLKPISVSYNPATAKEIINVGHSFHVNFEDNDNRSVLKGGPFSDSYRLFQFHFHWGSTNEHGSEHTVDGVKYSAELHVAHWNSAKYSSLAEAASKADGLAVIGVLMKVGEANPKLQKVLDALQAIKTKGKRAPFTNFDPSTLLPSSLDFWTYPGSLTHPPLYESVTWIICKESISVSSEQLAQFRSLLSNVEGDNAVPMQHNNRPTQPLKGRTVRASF", "assay": "Esterase activity assay (4-nitrophenylacetate, 348 nm), hCA-I", "settings": "hCA-I purified from human erythrocytes, 25 °C, pH 7.4", "method": "as §1\n(§3) The enzymatic reaction, in a total volume of 3.0 mL, contained 1.4 mL of 0.05 M tris–SO4 buffer (pH 7.4), 1 mL of 3 mM 4-nitrophenylacetate, 0.5 mL H2O and 0.1 mL enzyme solution. A reference measurement was obtained by preparing the same cuvette without enzyme solution.\nas §2"}, "hCA-I [3]": {"biological_target": "T2, hCA-I", "assay": "Determination of Ki values (esterase activity, Lineweaver–Burk), hCA-I", "settings": "five substrate concentrations, Lineweaver–Burk plot", "method": "as §1, §2"}, "hCA-I [4]": {"biological_target": "T2, hCA-I", "assay": "CO2-hydratase activity assay (Wilbur and Anderson), hCA-I", "settings": "hCA-I purified from human erythrocytes; CO2 hydration", "method": "as §1\n(§4) Carbonic anhydrase activity was assayed by following the hydration of CO2 according to the method described by Wilbur and Anderson.[49] CO2-hydratase activity as an enzyme unit (EU) was calculated by using the equation ((t0−tc)/tc) where t0 and tc are the times for pH change of the nonenzymatic and the enzymatic reactions, respectively."}, "hCA-II [5]": {"biological_target": "T1, hCA-II", "assay": "Esterase activity assay (4-nitrophenylacetate, 348 nm), hCA-II", "settings": "hCA-II purified from human erythrocytes, 25 °C, pH 7.4", "method": "as §1, §3, §2"}, "hCA-II [6]": {"biological_target": "T1, hCA-II", "assay": "CO2-hydratase activity assay (Wilbur and Anderson), hCA-II", "settings": "hCA-II purified from human erythrocytes; CO2 hydration", "method": "as §1, §4"}}}
{"smiles": "CCOC(=O)c1c(C(=O)Nc2nnc(S(N)(=O)=O)s2)nn(-c2cccc([N+](=O)[O-])c2)c1-c1ccccc1", "note": "[compound 1, ethyl 1-(3-nitrophenyl)-5-phenyl-3-((5-sulfamoyl-1,3,4-thiadiazol-2-yl)carbamoyl)-1H-pyrazole-4-carboxylate]", "values": [{"measurement": "Ki", "setting": "hCA-II [1]", "result": 5.3, "unit": "µM"}, {"measurement": "IC50", "setting": "hCA-I [2]", "result": 2.8, "unit": "µM"}, {"measurement": "Ki", "setting": "hCA-I [3]", "result": 1.1, "unit": "µM"}, {"measurement": "IC50", "setting": "hCA-I [4]", "result": 1.4, "unit": "µM"}, {"measurement": "IC50", "setting": "hCA-II [5]", "result": 5.6, "unit": "µM"}, {"measurement": "IC50", "setting": "hCA-II [6]", "result": 0.9, "unit": "µM"}]}
